The values that follow come from patent publication US20050197350A1, “Novel quinoline, tetrahydroquinazoline, and pyrimidine derivatives and methods of treatment related to the use thereof” (TAISHO PHARMACEUTICAL CO., LTD., priority 2003, published 2005).

The test system of the assay is MCH receptors. Kind of assay: MCH receptor activity class (method not given).
Setting [1] is: activity class 1-3: percent of control at 10^-7 M or IC50.
[2] abbreviates: class by percent of control at 10^-7 M or IC50.

Regarding `CN(C)c1nc(N[C@H]2CC[C@@H](NC(=O)Nc3ccc(Cl)cc3C(F)(F)F)CC2)nc2c1CCCC2` [compound 1687], under setting [1], the class is given as 3 (Class 3 The value of percent of control at 10^−7 M was more than 60% or the value of IC50 was more than 200 nM.).

With `CN(C)c1nc(N[C@H]2CC[C@@H](NC(=O)Nc3ccc(C#N)cc3)CC2)nc2c1CCCC2` [compound 1688], the class under setting [1] is recorded as 3 (Class 3 The value of percent of control at 10^−7 M was more than 60% or the value of IC50 was more than 200 nM.). Still for that read-out and setting: next, `CN(C)c1nc(N[C@H]2CC[C@@H](NC(=O)NC(c3ccccc3)c3ccccc3)CC2)nc2c1CCCC2` [compound 1689]: 1 (Class 1: The value of percent of control at 10^−7 M was less than 40% or the value of IC50 was less than 50 nM.); `Cc1cc(Br)cc(C)c1NC(=O)N[C@H]1CC[C@@H](Nc2nc3c(c(N(C)C)n2)CCCC3)CC1` [compound 1690, N-(4-bromo-2,6-dimethylphenyl)-N′-(cis-4-{[4-(dimethylamino)-5,6,7,8-tetrahydroquinazolin-2-yl]amino}cyclohexyl)urea]: 1 (Class 1: The value of percent of control at 10^−7 M was less than 40% or the value of IC50 was less than 50 nM.); `Cc1noc(-c2ccccc2)c1NC(=O)N[C@H]1CC[C@@H](Nc2nc3c(c(N(C)C)n2)CCCC3)CC1` [compound 1691]: 1 (Class 1: The value of percent of control at 10^−7 M was less than 40% or the value of IC50 was less than 50 nM.). With `Cc1cc(NC(=O)N[C@H]2CC[C@@H](Nc3nc4c(c(N(C)C)n3)CCCC4)CC2)c(C(F)(F)F)o1` [compound 1692], the class under setting [1] is listed as 3 (Class 3 The value of percent of control at 10^−7 M was more than 60% or the value of IC50 was more than 200 nM.). On the same count and under the same terms, for `CN(C)c1nc(N[C@H]2CC[C@@H](NC(=O)Nc3ccccc3Br)CC2)nc2c1CCCC2` [compound 1693] the value was 3 (Class 3 The value of percent of control at 10^−7 M was more than 60% or the value of IC50 was more than 200 nM.); for `CN(C)c1nc(N[C@H]2CC[C@@H](NC(=O)Nc3ccccc3-c3ccccc3)CC2)nc2c1CCCC2` [compound 1694], 3 (Class 3 The value of percent of control at 10^−7 M was more than 60% or the value of IC50 was more than 200 nM.); for `CCCCNC(=O)N[C@H]1CC[C@@H](Nc2nc3c(c(N(C)C)n2)CCCC3)CC1` [compound 1695], 3 (Class 3 The value of percent of control at 10^−7 M was more than 60% or the value of IC50 was more than 200 nM.). The same measure, in the same setting: next, `Cc1cccc(NC(=O)N[C@H]2CC[C@@H](Nc3nc4c(c(N(C)C)n3)CCCC4)CC2)c1C` [compound 1696]: 3 (Class 3 The value of percent of control at 10^−7 M was more than 60% or the value of IC50 was more than 200 nM.); `CCOC(=O)c1cccc(NC(=O)N[C@H]2CC[C@@H](Nc3nc4c(c(N(C)C)n3)CCCC4)CC2)c1` [compound 1697]: 3 (Class 3 The value of percent of control at 10^−7 M was more than 60% or the value of IC50 was more than 200 nM.); `C=C(C)c1cccc(C(C)(C)NC(=O)N[C@H]2CC[C@@H](Nc3nc4c(c(N(C)C)n3)CCCC4)CC2)c1` [compound 1698]: 3 (Class 3 The value of percent of control at 10^−7 M was more than 60% or the value of IC50 was more than 200 nM.).

On to `CN(C)c1nc(N[C@H]2CC[C@@H](NC(=O)Nc3cccc4ccccc34)CC2)nc2c1CCCC2` [compound 1700], for which the class under setting [1] is 2 (Class 2: The value of percent of control at 10^−7 M was from 40% to 60% or the value of IC′50 was from 50 nM to 200 nM.).

For the compound `CN(C)c1nc(N[C@H]2CC[C@@H](NC(=O)NC3C[C@H]3c3ccccc3)CC2)nc2c1CCCC2` (stereo partly shown) [compound 1701], the class under setting [1] is recorded as 3 (Class 3 The value of percent of control at 10^−7 M was more than 60% or the value of IC50 was more than 200 nM.). In the case of `CN(C)c1nc(N[C@H]2CC[C@@H](NC(=O)Nc3ccc(Oc4ccccc4)cc3)CC2)nc2c1CCCC2` [compound 1702], under setting [1], the class is on record as 3 (Class 3 The value of percent of control at 10^−7 M was more than 60% or the value of IC50 was more than 200 nM.). On to `CCCCCNC(=O)N[C@H]1CC[C@@H](Nc2nc3c(c(N(C)C)n2)CCCC3)CC1` [compound 1703], for which, under setting [1], the class is given as 3 (Class 3 The value of percent of control at 10^−7 M was more than 60% or the value of IC50 was more than 200 nM.).

For `CC(NC(=O)NC1CCC(Nc2nc3c(c(N(C)C)n2)CCCC3)CC1)c1ccccc1` (stereo not shown) [compound 1707], the class under setting [1] is recorded as 3 (Class 3 The value of percent of control at 10^−7 M was more than 60% or the value of IC50 was more than 200 nM.).

In the case of `CN(C)c1nc(N[C@H]2CC[C@@H](NC(=O)Nc3c(Cl)c(Cl)cc(Cl)c3Cl)CC2)nc2c1CCCC2` [compound 1708], under setting [1], the class is reported as 3 (Class 3 The value of percent of control at 10^−7 M was more than 60% or the value of IC50 was more than 200 nM.). In the case of `CN(C)c1nc(N[C@H]2CC[C@@H](NC(=O)Nc3ccc(Br)cc3Br)CC2)nc2c1CCCC2` [compound 1709], under setting [1], the class was 2 (Class 2: The value of percent of control at 10^−7 M was from 40% to 60% or the value of IC′50 was from 50 nM to 200 nM.).

With `CN(C)c1nc(N[C@H]2CC[C@@H](NC(=O)NCc3ccc(Cl)cc3Cl)CC2)nc2c1CCCC2` [compound 1710], under setting [2], the class was 2 (Class 2: The value of percent of control at 10^−7 M was from 40% to 60% or the value of IC′50 was from 50 nM to 200 nM.).

As for `COc1ccc(NC(=O)N[C@H]2CC[C@@H](Nc3nc4c(c(N(C)C)n3)CCCC4)CC2)c(OC)c1` [compound 1711, N-(2,4-dimethoxyphenyl)-N′-(cis-4-{[4-(dimethylamino)-5,6,7,8-tetrahydroquinazolin-2-yl]amino}cyclohexyl)urea], the class under setting [2] was 2 (Class 2: The value of percent of control at 10^−7 M was from 40% to 60% or the value of IC′50 was from 50 nM to 200 nM.).

With `CCOc1ccccc1NC(=O)N[C@H]1CC[C@@H](Nc2nc3c(c(N(C)C)n2)CCCC3)CC1` [compound 1712], the class under setting [2] is recorded as 2 (Class 2: The value of percent of control at 10^−7 M was from 40% to 60% or the value of IC′50 was from 50 nM to 200 nM.).

With `CN(C)c1nc(N[C@H]2CC[C@@H](NC(=O)NCc3ccccc3F)CC2)nc2c1CCCC2` [compound 1713], the class under setting [2] is reported as 2 (Class 2: The value of percent of control at 10^−7 M was from 40% to 60% or the value of IC′50 was from 50 nM to 200 nM.). Turning to `Cc1cc([N+](=O)[O-])ccc1NC(=O)N[C@H]1CC[C@@H](Nc2nc3c(c(N(C)C)n2)CCCC3)CC1` [compound 1714], the class under setting [2] is 3 (Class 3 The value of percent of control at 10^−7 M was more than 60% or the value of IC50 was more than 200 nM.). The same measure, in the same setting: for `Cc1ccc([N+](=O)[O-])cc1NC(=O)N[C@H]1CC[C@@H](Nc2nc3c(c(N(C)C)n2)CCCC3)CC1` [compound 1715] the value was 3 (Class 3 The value of percent of control at 10^−7 M was more than 60% or the value of IC50 was more than 200 nM.). On to `Cc1ccccc1CNC(=O)N[C@H]1CC[C@@H](Nc2nc3c(c(N(C)C)n2)CCCC3)CC1` [compound 1716], for which the class under setting [2] was 3 (Class 3 The value of percent of control at 10^−7 M was more than 60% or the value of IC50 was more than 200 nM.).

For `CN(C)c1nc(N[C@H]2CC[C@@H](NC(=O)Nc3ccccc3[N+](=O)[O-])CC2)nc2c1CCCC2` [compound 1717], under setting [2], the class is on record as 3 (Class 3 The value of percent of control at 10^−7 M was more than 60% or the value of IC50 was more than 200 nM.). Take `CN(C)c1nc(N[C@H]2CC[C@@H](NC(=O)Nc3ccc4c(c3)OCO4)CC2)nc2c1CCCC2` [compound 1718]: the class under setting [2] was 3 (Class 3 The value of percent of control at 10^−7 M was more than 60% or the value of IC50 was more than 200 nM.).

Turning to `COc1cc(NC(=O)N[C@H]2CC[C@@H](Nc3nc4c(c(N(C)C)n3)CCCC4)CC2)cc(OC)c1OC` [compound 1719], the class under setting [2] is 1 (Class 1: The value of percent of control at 10^−7 M was less than 40% or the value of IC50 was less than 50 nM.). Regarding `COc1ccc(NC(=O)N[C@H]2CC[C@@H](Nc3nc4c(c(N(C)C)n3)CCCC4)CC2)cc1OC` [compound 1720, N-(3,4-dimethoxyphenyl)-N′-(cis-4-{[4-(dimethylamino)-5,6,7,8-tetrahydroquinazolin-2-yl]amino}cyclohexyl)urea], the class under setting [2] was 2 (Class 2: The value of percent of control at 10^−7 M was from 40% to 60% or the value of IC′50 was from 50 nM to 200 nM.).

`COc1ccc(NC(=O)N[C@H]2CC[C@@H](Nc3nc4c(c(N(C)C)n3)CCCC4)CC2)cc1Cl` [compound 1721]: the class under setting [2] is 3 (Class 3 The value of percent of control at 10^−7 M was more than 60% or the value of IC50 was more than 200 nM.).

In the case of `CN(C)c1nc(N[C@H]2CC[C@@H](NC(=O)Nc3ccc(Br)cc3C(F)(F)F)CC2)nc2c1CCCC2` [compound 1722], the class under setting [2] was 3 (Class 3 The value of percent of control at 10^−7 M was more than 60% or the value of IC50 was more than 200 nM.). For the compound `CN(C)c1nc(N[C@H]2CC[C@@H](NC(=O)NCc3ccc(Br)cc3)CC2)nc2c1CCCC2` [compound 1723], under setting [2], the class was 3 (Class 3 The value of percent of control at 10^−7 M was more than 60% or the value of IC50 was more than 200 nM.). `Cc1cc(Cl)ccc1NC(=O)N[C@H]1CC[C@@H](Nc2nc3c(c(N(C)C)n2)CCCC3)CC1` [compound 1724, N-(4-chloro-2-methylphenyl)-N′-(cis-4-{[4-(dimethylamino)-5,6,7,8-tetrahydroquinazolin-2-yl]amino}cyclohexyl)urea]: the class under setting [2] is on record as 2 (Class 2: The value of percent of control at 10^−7 M was from 40% to 60% or the value of IC′50 was from 50 nM to 200 nM.). As to `CN(C)c1nc(N[C@H]2CC[C@@H](NC(=O)NCc3ccc(F)cc3)CC2)nc2c1CCCC2` [compound 1725], the class under setting [2] is 2 (Class 2: The value of percent of control at 10^−7 M was from 40% to 60% or the value of IC′50 was from 50 nM to 200 nM.).

Regarding `COc1ccc(NC(=O)N[C@H]2CC[C@@H](Nc3nc4c(c(N(C)C)n3)CCCC4)CC2)c(C)c1` [compound 1726], under setting [2], the class was 2 (Class 2: The value of percent of control at 10^−7 M was from 40% to 60% or the value of IC′50 was from 50 nM to 200 nM.). Turning to `COc1cc(OC)c(NC(=O)N[C@H]2CC[C@@H](Nc3nc4c(c(N(C)C)n3)CCCC4)CC2)cc1Cl` [compound 1727], under setting [2], the class is reported as 1 (Class 1: The value of percent of control at 10^−7 M was less than 40% or the value of IC50 was less than 50 nM.).
